pIC50: −log10 of the molar value. Where two headings read alike, the source gives them in different places. Marks after values point to notes of the source that are not given here.
Assays:
murine leukemic P388/0 = experiment: XTT cytotoxicity, P388/0; format: cell-based; details: Table 1C; XTT, 72 h; read-out: IC50
Procedure: (§1) The DC-3F hamster lung fibroblast cell line and its actinomycin D-selected sublines (DC-3F/ADII and DC-3F/ADX) were obtained from the Memorial Sloan-Kettering Cancer Center (MSKCC).
(§2) The drug-resistant cell lines were continuously cultured in the presence of the selecting agent, AD, DX, VBL or VM to maintain the drug resistant phenotypes. […] All cells were cultured in RPMI 1640-10% FBS at 37° C. 5% CO2 (see below).
(§3) The cells were cultured at an initial density of 5×10^4 cells/mL. They were maintained in a 5% CO2-humidified atmosphere at 37° C. in RPMI-1640 medium (GIBCO-BRL, Gaithersburg, Md.) containing penicillin (100 U/mL), streptomycin ([…]) (GIBCO-BRL) and 10% heat inactivate fetal bovine serum. Culture for cell suspension (such as for CCRF-CEM, P388 and sublines), were performed by the XTT-microculture tetrazonium method (Scudiero, D. A. et al., Cancer Res. 1988, 48, 4827-4833) in duplicate in 96-well microtiter plates.
(§4) 2′,3′-Bis(methoxy-4-nitro-5-sufophenyl)-5-[(phenylamino)carbonyl]2H-tetrazolium hyudroxide (XTT) was prepared at 1 mg/mL in prewarmed (37° C.) medium without serum. Phenazine methosulfate (PMS) and fresh XTT were mixed together to obtain 0.025 mM PMS-XTT solution (25 μL of the stock 5 mM PMS was added per 5 mL of 1 mg/mL XTT). Following a 72 h incubation, 50 μL of the assay aliquots were added to each well of the cell culture. After incubation at 37° C. for 4 h, absorbance at 450 nm and 630 nm was measured with a microplate reader (EL340, Bio-Tek Instruments, Inc., Winooski, Vt.).

[1] = test system: human neuroblastoma SK-N-As; experiment: SRB cytotoxicity, SK-N-As; format: cell-based; details: Table 1C; SRB, 72 h; read-out: IC50
Procedure: as §1, §2
(§5) The cytotoxicity of the drug toward the monolayer cell cultures (such as DC-3F, MCF-7, SK-N-As and sublines) was determined in 96-well microtiter plates by the SRB method as described by Skehan and co-workers (Skehan, P., et al., J. Natl. Cancer Inst. 1990, 82, 1107-1112) for measuring the cellular protein content. Cultures were fixed with trichloroacetic acid and then stained for 30 min with 0.4% suforhodamine B dissolved in 1% acetic acid. Unbound dye was removed by acetic acid washes, and the protein-bound dye was extracted with an unbuffered Tris base (tris(hydroxy-methyl)aminomethane) for determination of absorbance at 570 nm in a 96-well microtiter plate reader. The experiments were carried out in duplicate. Each run entailed six to seven concentrations of the tested drugs. Data were analyzed with the median-effect plot (Chou, T.-C. & Talalay, P. T. (1984) Adv. Enzyme Regul. 22, 27-55) using a previously described computer program (Chou, J., & Chou T.-C. 1987, Dose-effect analysis with microcomputers: Quantitation of ED50, synergism, antagonism, low-dose risk, reception-ligand binding and enzyme kinetics, IBM-PC software and manual, Biosoft, Cambridge, U.K.).

CCRF-CEM/VM1 = experiment: cells; format: cell-based, human
Procedure: as §2, §3, §4

CCRF-CEM/VBL100 = experiment: cells; format: cell-based, human
Procedure: as §2, §3, §4

CCRF-CEM/Taxol® = experiment: cells; format: cell-based, human
Procedure: as §2, §3, §4

[2] = test system: DC-3F hamster lung fibroblast cell line; experiment: SRB cytotoxicity, DC-3F; format: cell-based; details: read-out: IC50
Procedure: as §1, §2, §5

P388/Adr = experiment: cells; format: cell-based, murine; details: Table 1C
Procedure: as §2, §3, §4

DC-3F/ADX = experiment: cells; format: cell-based, hamster; details: for pIC50: read-out: IC50
Procedure: as §1, §2, §5
Concerning Table 3, experiments were carried out using the cell lines DC-3F (parent hamster lung cells), DC-3F/ADII (moderate multidrug-resistant (MDR) cells) and DC-3F/ADX (very strong MDR cells).

MCF-7/Adr = experiment: cells; format: cell-based, human; details: Table 1C
Procedure: Cultures were fixed with trichloroacetic acid and then stained for 30 min with 0.4% suforhodamine B dissolved in 1% acetic acid. Unbound dye was removed by acetic acid washes, and the protein-bound dye was extracted with an unbuffered Tris base (tris(hydroxy-methyl)aminomethane) for determination of absorbance at 570 nm in a 96-well microtiter plate reader. The experiments were carried out in duplicate. Each run entailed six to seven concentrations of the tested drugs.

[3] = test system: CCRF-CEM human T-cell acute lymphoblastic leukemia cell line; experiment: XTT cytotoxicity (cell growth inhibition), CCRF-CEM
Procedure: as §1, §2, §3, §4

MCF-7 = experiment: SRB cytotoxicity, MCF-7; format: cell-based, human; details: Table 1C; SRB, 72 h; read-out: IC50
Procedure: as §5

SK-N-FI = experiment: cells; format: cell-based, human; details: Table 1C
Procedure: as §2, §5

[4] = Table 1A, XTT, 72 h, read-out: IC50

Structure (SMILES): C/C(=C\c1csc(C)n1)[C@@H]1C[C@@H]2O[C@@H]2CCC[C@H](C)[C@H](O)[C@@H](C)C(=O)C(C)(C)[C@@H](O)CC(=O)O1 [Epothilone A, epothilone A]
- pIC50 (murine leukemic P388/0): 8.74
- pIC50 [1]: 7.92
- (C)/(A) ratio (fold resistance >1, collateral sensitivity <1) (CCRF-CEM/VM1): (1.06)^a
- pIC50 (CCRF-CEM/VM1; Table 1, XTT, read-out: IC50): 8.52
- (D)/(A) IC50 ratio (CCRF-CEM/VM1; Table 1A, CCRF-CEM/VM1 vs CCRF-CEM): 2.3
- pIC50 (CCRF-CEM/VM1; [4]): 8.21
- pIC50 (CCRF-CEM/VM1; Table 2A, Topo II gene mutated cell line, read-out: IC50 (C)): 8.47
- (B)/(A) ratio (fold resistance >1, collateral sensitivity <1) (CCRF-CEM/VBL100): (7.5)^a
- fold resistance (cross-resistance) vs parent CCRF-CEM (CCRF-CEM/VBL100; CCRF-CEM/VBL100 MDR cells): 8 fold
- pIC50 (CCRF-CEM/VBL100; Table 1, XTT, read-out: IC50): 7.70
- (B)/(A) IC50 ratio (CCRF-CEM/VBL100; Table 1A, CCRF-CEM/VBL100 vs CCRF-CEM): 7.4
- pIC50 (CCRF-CEM/VBL100; [4]): 7.70
- pIC50 (CCRF-CEM/VBL100; Table 2A, MDR cell line, read-out: IC50 (B)): 7.62
- pIC50 (CCRF-CEM/VBL100; Table 7, CEM/VBL, read-out: IC50): 7.69
- pIC50 (CCRF-CEM/VBL100; read-out: IC50): 7.70
- (C)/(A) IC50 ratio (CCRF-CEM/Taxol®): 1.4
- pIC50 (CCRF-CEM/Taxol®; [4]): 8.43
- pIC50 ([2]; Table 1C, SRB, 72 h): 8.43
- pIC50 ([2]; relative potency ordering): 8.44
- folds of resistance (IC50 ratio vs parent cell line) (P388/Adr; P388/Adr vs P388/O): (5.3x)#
- pIC50 (P388/Adr; XTT, 72 h, read-out: IC50): 9.00
- folds of resistance (IC50 ratio vs parent cell line) (DC-3F/ADX; Table 1C, DC-3F/ADX vs DC-3F): (14.5x)#
- pIC50 (DC-3F/ADX; Table 1C, SRB, 72 h): 7.28
- pIC50 (DC-3F/ADX; relative potency ordering): 7.22
- folds of resistance (IC50 ratio vs parent cell line) (MCF-7/Adr; MCF-7/Adr vs MCF-7): (3.1x)#
- pIC50 (MCF-7/Adr; SRB, 72 h, read-out: IC50): 8.03
- pIC50 [3]: 8.57
- pIC50 ([3]; Table 1, XTT): 8.52
- pIC50 ([3]; Table 7, CEM): 8.54
- pIC50 ([3]; read-out: IC50 (A), Table 2A, parent cell line): 8.49
- pIC50 (MCF-7): 8.52
- folds of resistance (IC50 ratio vs parent cell line) (SK-N-FI; SK-N-FI vs SK-N-As): (1.9x)#
- pIC50 (SK-N-FI; SRB, 72 h, read-out: IC50): 7.64

— patent publication US6603023B2 (priority 1996, dated 2003)
